Test system: HCoV OC43
Assay: Antiviral CPE reduction assay
Type: cell-based, human coronavirus OC43
Conditions: Betacoronavirus 1, OC43, HEL 299 cells

**Q.** With `Cn1c(-c2ccc(C#N)cc2)nc2cccnc21` [Compound 17, 4-(3-Methyl-3H-imidazo[4,5-b]pyridin-2-yl)benzonitrile] as the molecule, how does the EC50 read?
**A.** > 100 µM

Test system: Sindbis
Assay: Antiviral CPE reduction assay
Type: cell-based
Conditions: Sindbis virus, Huh-7, Huh7 cells

**Q.** For `Cn1c(-c2ccc(C#N)cc2)nc2cccnc21` [Compound 17, 4-(3-Methyl-3H-imidazo[4,5-b]pyridin-2-yl)benzonitrile], which EC50 is on record?
**A.** > 100 µM

Test system: Influenza B (B/Ned/537/05)
Assay: Antiviral CPE reduction assay
Type: cell-based
Conditions: Influenza B virus, MDCK cells

**Q.** For `Cn1c(-c2ccc(C#N)cc2)nc2cccnc21` [Compound 17, 4-(3-Methyl-3H-imidazo[4,5-b]pyridin-2-yl)benzonitrile], which EC50 is on record?
**A.** > 100 µM

Test system: Influenza H1N1 (A/Ned/378/05)
Assay: Antiviral CPE reduction assay
Type: cell-based
Conditions: Influenza A virus, MDCK cells

**Q.** Which EC50 does the source give for `Cn1c(-c2ccc(C#N)cc2)nc2cccnc21` [Compound 17, 4-(3-Methyl-3H-imidazo[4,5-b]pyridin-2-yl)benzonitrile] here?
**A.** > 100 µM

Test system: HSV-1 KOS
Assay: Antiviral CPE reduction assay
Type: cell-based, herpes simplex virus-1
Conditions: Human alphaherpesvirus 1

**Q.** With `Cn1c(-c2ccc(C#N)cc2)nc2cccnc21` [Compound 17, 4-(3-Methyl-3H-imidazo[4,5-b]pyridin-2-yl)benzonitrile] as the molecule, how does the EC50 read?
**A.** > 100 µM

Test system: DND-41 acute lymphoblastic leukemia cells
Assay: In vitro antiproliferative activity, MTS proliferation assay
Type: cell-based
Conditions: Homo sapiens, DND41, 72 h
Protocol: (§1) Culture media were purchased from Gibco Life Technologies, USA, and supplemented with 10% fetal bovine serum (HyClone, GE Healthcare Life Sciences, Chicago, IL, USA), except for the media for SW620, PC3 and HeLa cells, which were purchased from Sigma.
(§2) Cells were incubated for 72 h with compounds and were then analyzed using the CellTiter 96® AQueous One Solution Cell Proliferation Assay (MTS) reagent (Promega) according to the manufacturer’s instructions. […] Compounds were tested in two independent experiments. SW620, PC3 and HeLa cells were seeded in 96-well microtiter plates at 1 × 10^4 to 3 × 10^4 cells/mL, depending on the doubling times of the specific cell line. Test agents were then added in five 10-fold dilutions (10^−8 to 10^−4 M). Working dilutions were freshly prepared on the day of testing. After 72 h of incubation, the cell growth rate was evaluated using the MTT assay as described previously. […] Each test was performed in quadruplicate in at least two individual experiments.

**Q.** With `Cn1c(-c2ccc(C#N)cc2)nc2cccnc21` [Compound 17, 4-(3-Methyl-3H-imidazo[4,5-b]pyridin-2-yl)benzonitrile] as the molecule, how does the IC50 read?
**A.** > 100 µM

Test system: Capan-1 pancreatic adenocarcinoma cells
Assay: as above
Type: cell-based
Conditions: Homo sapiens, 72 h
Protocol: as §1, §2

**Q.** With `Cn1c(-c2ccc(C#N)cc2)nc2cccnc21` [Compound 17, 4-(3-Methyl-3H-imidazo[4,5-b]pyridin-2-yl)benzonitrile] as the molecule, how does the IC50 read?
**A.** > 100 µM

Test system: HL-60 acute myeloid leukemia cells
Assay: as above
Type: cell-based
Conditions: Homo sapiens, 72 h
Protocol: as §1, §2

**Q.** Which IC50 does the source give for `Cn1c(-c2ccc(C#N)cc2)nc2cccnc21` [Compound 17, 4-(3-Methyl-3H-imidazo[4,5-b]pyridin-2-yl)benzonitrile] here?
**A.** > 100 µM

Test system: Z-138 non-Hodgkin lymphoma cells
Assay: as above
Type: cell-based, human
Conditions: Homo sapiens, Z-138, 72 h
Text: (§3) Human cancer cell lines used in this manuscript, namely Capan-1, HCT-116, NCI-H460, LN-229, HL-60, K-562, Z-138, SW620, PC3 and HeLa, were acquired from the American Type Culture Collection (ATCC, Manassas, VA, USA), while the DND-41 cell line was purchased from the Deutsche Sammlung von Mikroorganismen und Zellkulturen (DSMZ Leibniz-Institut, Germany). Culture media were purchased from Gibco Life Technologies, USA, and supplemented with 10% fetal bovine serum (HyClone, GE Healthcare Life Sciences, Chicago, IL, USA), except for the media for SW620, PC3 and HeLa cells, which were purchased from Sigma.
(§4) Adherent cell lines LN-229, HCT-116, NCI-H460 and Capan-1 cells were seeded at a density between 500 and 1500 cells per well in 384-well tissue culture plates (Greiner). […]. Cells were incubated for 72 h with compounds and were then analyzed using the CellTiter 96® AQueous One Solution Cell Proliferation Assay (MTS) reagent (Promega) according to the manufacturer’s instructions. Absorbance of the samples was measured at 490 nm using a SpectraMax Plus 384 (Molecular Devices), and OD values were used to calculate the 50% inhibitory concentration (IC50). Compounds were tested in two independent experiments. SW620, PC3 and HeLa cells were seeded in 96-well microtiter plates at 1 × 10^4 to 3 × 10^4 cells/mL, depending on the doubling times of the specific cell line. Test agents were then added in five 10-fold dilutions (10^−8 to 10^−4 M). Working dilutions were freshly prepared on the day of testing. After 72 h of incubation, the cell growth rate was evaluated using the MTT assay as described previously. Absorbance of the samples was measured at 570 nm, and OD values were used to calculate the 50% inhibitory concentration (IC50). Each test was performed in quadruplicate in at least two individual experiments.

**Q.** Which IC50 does the source give for `Cn1c(-c2ccc(C#N)cc2)nc2cccnc21` [Compound 17, 4-(3-Methyl-3H-imidazo[4,5-b]pyridin-2-yl)benzonitrile] here?
**A.** > 100 µM

Test system: HCoV NL63
Assay: Antiviral CPE reduction assay
Type: cell-based
Conditions: Human coronavirus NL63, Huh-7, Huh7 cells

**Q.** For `Cn1c(-c2ccc(C#N)cc2)nc2cccnc21` [Compound 17, 4-(3-Methyl-3H-imidazo[4,5-b]pyridin-2-yl)benzonitrile], which EC50 is on record?
**A.** > 100 µM

Test system: not listed separately
Assay: in vitro
Conditions: human

**Q.** Which CC50 does the source give for `Cn1c(-c2ccc(C#N)cc2)nc2cccnc21` [Compound 17, 4-(3-Methyl-3H-imidazo[4,5-b]pyridin-2-yl)benzonitrile] here?
**A.** > 100 µM

Test system: not given
Assay: not given
Conditions: not given

**Q.** With `Cn1c(-c2ccc(C#N)cc2)nc2cccnc21` [Compound 17, 4-(3-Methyl-3H-imidazo[4,5-b]pyridin-2-yl)benzonitrile] as the molecule, how does the melting point read?
**A.** 183 to 185 °C

Test system: not listed separately
Assay: in vitro
Conditions: dog

**Q.** For `Cn1c(-c2ccc(C#N)cc2)nc2cccnc21` [Compound 17, 4-(3-Methyl-3H-imidazo[4,5-b]pyridin-2-yl)benzonitrile], which CC50 is on record?
**A.** > 100 µM

Test system: YFV 17D
Assay: microbe, parasite or virus in culture
Type: cell-based
Conditions: Yellow fever virus, Huh-7, read-out: EC50 YFV 17D Huh7

**Q.** For `Cn1c(-c2ccc(C#N)cc2)nc2cccnc21` [Compound 17, 4-(3-Methyl-3H-imidazo[4,5-b]pyridin-2-yl)benzonitrile], which EC50 is on record?
**A.** > 100 µM

Test system: LN-229 glioblastoma cells
Assay: In vitro antiproliferative activity, MTS proliferation assay
Type: cell-based
Conditions: Homo sapiens, 72 h
Text: as §3, §4

**Q.** Which IC50 does the source give for `Cn1c(-c2ccc(C#N)cc2)nc2cccnc21` [Compound 17, 4-(3-Methyl-3H-imidazo[4,5-b]pyridin-2-yl)benzonitrile] here?
**A.** > 100 µM

Test system: K-562 chronic myeloid leukemia cells
Assay: as above
Type: cell-based
Conditions: Homo sapiens, K562, 72 h
Text: as §3, §4

**Q.** With `Cn1c(-c2ccc(C#N)cc2)nc2cccnc21` [Compound 17, 4-(3-Methyl-3H-imidazo[4,5-b]pyridin-2-yl)benzonitrile] as the molecule, how does the IC50 read?
**A.** > 100 µM

Test system: NCI-H460 lung carcinoma cells
Assay: as above
Type: cell-based
Conditions: Homo sapiens, 72 h
Text: as §3, §4

**Q.** With `Cn1c(-c2ccc(C#N)cc2)nc2cccnc21` [Compound 17, 4-(3-Methyl-3H-imidazo[4,5-b]pyridin-2-yl)benzonitrile] as the molecule, how does the IC50 read?
**A.** > 100 µM

Test system: HCT-116 colorectal carcinoma cells
Assay: as above
Type: cell-based
Conditions: Homo sapiens, 72 h
Text: as §3, §4

**Q.** With `Cn1c(-c2ccc(C#N)cc2)nc2cccnc21` [Compound 17, 4-(3-Methyl-3H-imidazo[4,5-b]pyridin-2-yl)benzonitrile] as the molecule, how does the IC50 read?
**A.** > 100 µM

Test system: Zika mr766
Assay: Antiviral CPE reduction assay
Type: cell-based
Conditions: Zika virus, Huh-7, Huh7 cells

**Q.** With `Cn1c(-c2ccc(C#N)cc2)nc2cccnc21` [Compound 17, 4-(3-Methyl-3H-imidazo[4,5-b]pyridin-2-yl)benzonitrile] as the molecule, how does the EC50 read?
**A.** > 100 µM

Test system: not listed separately
Assay: in vitro
Conditions: human
Remark: another data set of the same source

**Q.** Which CC50 does the source give for `Cn1c(-c2ccc(C#N)cc2)nc2cccnc21` [Compound 17, 4-(3-Methyl-3H-imidazo[4,5-b]pyridin-2-yl)benzonitrile] here?
**A.** > 100 µM

Test system: RSV A Long
Assay: Antiviral CPE reduction assay
Type: cell-based, respiratory syncytial virus A
Conditions: CPE reduction, HEL 299 cells

**Q.** With `Cn1c(-c2ccc(C#N)cc2)nc2cccnc21` [Compound 17, 4-(3-Methyl-3H-imidazo[4,5-b]pyridin-2-yl)benzonitrile] as the molecule, how does the EC50 read?
**A.** 79 ± 29.7 µM

Same assay, conditions: human respiratory syncytial virus, HEL 299, CPE reduction, HEL 299 cells

**Q.** With `Cn1c(-c2ccc(C#N)cc2)nc2cccnc21` [Compound 17, 4-(3-Methyl-3H-imidazo[4,5-b]pyridin-2-yl)benzonitrile] as the molecule, how does the EC50 read?
**A.** 58 µM

Test system: HeLa cervical carcinoma cells
Assay: In vitro antiproliferative activity, MTT assay
Type: cell-based
Conditions: Homo sapiens, 72 h
Text: as §3, §4

**Q.** Which IC50 does the source give for `Cn1c(-c2ccc(C#N)cc2)nc2cccnc21` [Compound 17, 4-(3-Methyl-3H-imidazo[4,5-b]pyridin-2-yl)benzonitrile] here?
**A.** > 100 µM

Test system: PC3 prostate carcinoma cells
Assay: In vitro antiproliferative activity, MTT assay
Type: cell-based
Conditions: Homo sapiens, 72 h
Text: as §3, §4

**Q.** With `Cn1c(-c2ccc(C#N)cc2)nc2cccnc21` [Compound 17, 4-(3-Methyl-3H-imidazo[4,5-b]pyridin-2-yl)benzonitrile] as the molecule, how does the IC50 read?
**A.** > 100 µM

Test system: SW620 colon carcinoma cells
Assay: In vitro antiproliferative activity, MTT assay
Type: cell-based
Conditions: Homo sapiens, SW-620, 72 h
Text: as §3, §4

**Q.** With `Cn1c(-c2ccc(C#N)cc2)nc2cccnc21` [Compound 17, 4-(3-Methyl-3H-imidazo[4,5-b]pyridin-2-yl)benzonitrile] as the molecule, how does the IC50 read?
**A.** > 100 µM

Test system: HCoV 229E
Assay: Antiviral CPE reduction assay
Type: cell-based
Conditions: Human coronavirus 229E, HEL 299 cells

**Q.** For `Cn1c(-c2ccc(C#N)cc2)nc2cccnc21` [Compound 17, 4-(3-Methyl-3H-imidazo[4,5-b]pyridin-2-yl)benzonitrile], which EC50 is on record?
**A.** > 100 µM

Test system: Influenza H3N2 (A/HK/7/87)
Assay: Antiviral CPE reduction assay
Type: cell-based
Conditions: Influenza A virus, MDCK cells

**Q.** Which EC50 does the source give for `Cn1c(-c2ccc(C#N)cc2)nc2cccnc21` [Compound 17, 4-(3-Methyl-3H-imidazo[4,5-b]pyridin-2-yl)benzonitrile] here?
**A.** > 100 µM

Test system: E. coli Efflux Del
Assay: microbe, parasite or virus in culture
Type: cell-based
Conditions: Escherichia coli, read-out: MIC E. coli Efflux Del
Protocol: (§5) Synthesized compounds were prepared as 10 mM DMSO solutions and tested in a final concentration range of 100–0.2 µM [34].
(§6) Broth microdilution testing was performed according to CLSI (Clinical Laboratory Standards Institute) guidelines. MIC (minimal inhibitory concentration) values were defined as the last tested concentration of the compound at which there was no visible growth of bacteria. Inoculums for each microorganism were prepared using the direct colony suspension method, where broth solutions that achieved turbidity equivalent to 0.5 McFarland standard were additionally diluted 100× with Ca-adjusted MH media (Becton Dickinson).

**Q.** Which MIC does the source give for `Cn1c(-c2ccc(C#N)cc2)nc2cccnc21` [Compound 17, 4-(3-Methyl-3H-imidazo[4,5-b]pyridin-2-yl)benzonitrile] here?
**A.** > 64 µM

Test system: S. aureus ATCC 29213
Assay: Antibacterial activity in vitro, broth microdilution
Type: cell-based
Conditions: Staphylococcus aureus, ATCC29213; broth microdilution (CLSI), 16–24 h at 37 °C
Protocol: as §5, §6

**Q.** Which MIC does the source give for `Cn1c(-c2ccc(C#N)cc2)nc2cccnc21` [Compound 17, 4-(3-Methyl-3H-imidazo[4,5-b]pyridin-2-yl)benzonitrile] here?
**A.** > 64 µM

Test system: E. coli ATCC 25922
Assay: as above
Type: cell-based
Conditions: Escherichia coli, ATCC25922; broth microdilution (CLSI), 16–24 h at 37 °C
Protocol: as §5, §6

**Q.** For `Cn1c(-c2ccc(C#N)cc2)nc2cccnc21` [Compound 17, 4-(3-Methyl-3H-imidazo[4,5-b]pyridin-2-yl)benzonitrile], which MIC is on record?
**A.** > 64 µM

Test system: S. Pneumoniae ATCC 49619
Assay: as above
Type: cell-based
Conditions: Streptococcus pneumoniae, ATCC49619; broth microdilution (CLSI), 16–24 h at 37 °C
Protocol: as §5, §6

**Q.** Which MIC does the source give for `Cn1c(-c2ccc(C#N)cc2)nc2cccnc21` [Compound 17, 4-(3-Methyl-3H-imidazo[4,5-b]pyridin-2-yl)benzonitrile] here?
**A.** > 64 µM

From article PMC9822021, “Biological Activity of Amidino-Substituted Imidazo [4,5-b]pyridines” (Molecules, 2022)
